Entries after “also recorded” stand apart in the source; their conditions may differ. Where two headings read alike, the source gives them in different places.
What was measured:
[1] = system: Neuro2a cells transfected with the TDP-43 gene; assay: Inhibition of cell death in neuron-differentiated Neuro2a cells transfected with the TDP-43 gene (Example 1); type: cell-based, Mouse; settings: evaluated 7 days after transfection, Figures 3 and 4
Method: Mouse neuroblastoma (Neuro2a) cells were seeded on a dish. The Neuro2a cells were cultured in a culture medium containing DMEM+10% FBS at 37°C in the presence of 5% CO2. On the first day after seeding, differentiation into neurons was initiated. Differentiation into neurons was performed in a culture medium containing DMEM+2% FBS+20 µmol/L retinoic acid. On the fourth day after seeding, cells were transfected with synthesized TDP-43 mRNA by a lipofection method. Cells were sampled at 6 hours, 9 hours, 12 hours, 15 hours, 18 hours, and 21 hours after transfection. […] For sampling, cells were lysed in an RIPA buffer and centrifuged at 22,000xg for 30 minutes at 4°C, the supernatant was used as the soluble fraction, the precipitate was used as the insoluble fraction, and equal volumes of a 2×SDS sample buffer were added to the respective fractions and heated at 95°C for 5 minutes to prepare electrophoresis samples. The electrophoresis samples were subjected to electrophoresis using a polyacrylamide gel, TDP-43 was then transferred to a PVDF membrane. TDP-43 was detected through chemiluminescence using anti-TDP-43 antibodies as primary antibodies and HRP-conjugated anti-rabbit antibodies as secondary antibodies. […] The insoluble fractions of TDP-43 indicate the aggregation of TDP-43. […]
The proportion of dead cells was evaluated 7 days after the cells were transfected with the TDP-43 gene.

TDP-43 [2] = assay: Soluble and insoluble fractions of TDP-43 in motor neurons derived from iPS cells of healthy subjects, Western blot (Example 3); type: cell-based, human; settings: 10 µmol/L, cultured for 20 days, Figure 7
Method: 100 µL of an EHS-gel basement membrane matrix (commercially available from FUJIFILM Wako Pure Chemical Corporation) was added to 12.5 mL of DMEM (Dulbecco's Modified Eagle Medium, commercially available from FUJIFILM Wako Pure Chemical Corporation) and mixed, and the mixture was added to a 24-well plate at 600 µL per well. The plate was left at room temperature for 2 hours, and the solution was then removed from the wells. Next, 600 µL of DMEM was added to each well, and the plate was left at room temperature for 2 hours.
Motor neurons derived from iPS cells of healthy subjects and motor neurons derived from iPS cells of ALS patients were obtained from iXCells Biotechnologies. The motor neurons were quickly thawed in a thermostatic oven at 37°C and suspended in a motor neuron maintenance culture medium (iXCells Biotechnologies). […]
The soluble protein fractions and the insoluble protein fractions were subjected to SDS-PAGE, and the proteins were transferred to a PVDF membrane. […] Next, the PVDF membrane was washed three times with a buffer solution, 1 mL of a luminescence reagent (ImmunoStar LD, commercially available from FUJIFILM Wako Pure Chemical Corporation) was then used to induce luminescence from the labeled secondary antibodies, and the PVDF membrane was imaged.

[3] = cited from earlier work
TDP-43 [4] = assay: Soluble and insoluble fractions of TDP-43 in TDP-43-transfected Neuro2a cells, Western blot (Example 2); type: cell-based, Mouse; settings: 10 µmol/L added 6 hours after transfection, cultured for 12 hours; for soluble fractions versus insoluble fractions of TDP-43: Figure 5; for proportion of insoluble fractions based on a total number of soluble fractions and insoluble fractions of TDP-43: Figure 6
Method: Mouse neuroblastoma (Neuro2a) cells were seeded on a dish. The Neuro2a cells were cultured in a culture medium containing DMEM+10% FBS at 37°C in the presence of 5% CO2. On the first day after seeding, differentiation into neurons was initiated. Differentiation into neurons was performed in a culture medium containing DMEM+2% FBS+20 µmol/L retinoic acid. On the fourth day after seeding, cells were transfected with synthesized TDP-43 mRNA by a lipofection method. Cells were sampled at 6 hours, 9 hours, 12 hours, 15 hours, 18 hours, and 21 hours after transfection. […] For sampling, cells were lysed in an RIPA buffer and centrifuged at 22,000xg for 30 minutes at 4°C, the supernatant was used as the soluble fraction, the precipitate was used as the insoluble fraction, and equal volumes of a 2×SDS sample buffer were added to the respective fractions and heated at 95°C for 5 minutes to prepare electrophoresis samples. The electrophoresis samples were subjected to electrophoresis using a polyacrylamide gel, TDP-43 was then transferred to a PVDF membrane. TDP-43 was detected through chemiluminescence using anti-TDP-43 antibodies as primary antibodies and HRP-conjugated anti-rabbit antibodies as secondary antibodies. […] The insoluble fractions of TDP-43 indicate the aggregation of TDP-43.
Neuro2a cells were seeded on a dish. On the first day after seeding, differentiation into neurons was initiated. On the fourth day after seeding, cells were transfected with the TDP-43 gene.

[5] = Reported human pharmacokinetics of D-cycloserine (literature); type: in vivo, humans; settings: estimated; 15 mg orally administered twice daily
[6] = cited from earlier work; remark: listed apart in the source
TDP-43 [7] = assay: Soluble and insoluble fractions of TDP-43 in motor neurons derived from iPS cells of ALS patients, Western blot (Example 3); type: cell-based, human; settings: 10 µmol/L, cultured for 20 days; for bands for insoluble fractions of TDP-43: Figure 7; for average proportion of insoluble fractions of TDP-43: three experiments, Figure 8

Row | Compound | effect of inhibiting cell death [1] | bands for insoluble fractions of TDP-43 (TDP-43 [2]) | side effects ([3]; 150 mg administered to humans) | side effects ([3]; 250 mg administered to humans to treat tuberculosis) | soluble fractions versus insoluble fractions of TDP-43 (TDP-43 [4]) | proportion of insoluble fractions based on a total number of soluble fractions and insoluble fractions of TDP-43 (TDP-43 [4]) | trough value [5] | Cmax ([6]; 15 mg orally administered to humans, read-out: maximum blood concentration (Cmax)) | half-life ([6]; in vivo) | bands for insoluble fractions of TDP-43 (TDP-43 [7]) | average proportion of insoluble fractions of TDP-43 (TDP-43 [7])
1 | N[C@@H]1CONC1=O [D-cycloserine, (4R)-4-Amino-1,2-oxazolidin-3-one] | cell death was inhibited; also recorded: exhibited an effect of inhibiting cell death in a concentration-dependent manner | bands for insoluble fractions were unclear | headaches | serious side effects such as epileptiform seizure and mental confusion | the number of soluble fractions of TDP-43 was larger than the number of insoluble fractions of TDP-43 | less than half | > 128 nmol/L | ~5.6 µM | about 10 hours | bands for insoluble fractions were unclear | about 17.4%
2 | N[C@H]1CONC1=O [L-cycloserine, (4S)-4-amino-1,2-oxazolidin-3-one] | exhibited an effect of inhibiting cell death in a concentration-dependent manner |  |  |  | the number of soluble fractions of TDP-43 was larger than the number of insoluble fractions of TDP-43 | less than half |  |  |  |  | 
3 | CCCN(CCC)CCc1cccc2c1CC(=O)N2 [ropinirole] |  | bands for insoluble fractions were unclear |  |  |  |  |  |  |  | bands for insoluble fractions were unclear | about 19.3%

Reference: patent EP4778519A1, “THERAPEUTIC OR PROPHYLACTIC AGENT FOR FRONTOTEMPORAL LOBAR DEGENERATION ACCOMPANIED BY ACCUMULATION OF TDP-43 (FTLD-TDP)” (Socium Inc., priority 2023, dated 2025)
